Several values for one entry are separate records, joined by “and”; a condition that tells them apart may be missing. Identical values can stand only once. Entries after “also recorded” stand apart in the source; their conditions may differ. Like-named read-outs stand apart in the source and are kept apart here. Values belong to the molecule of their own block, whether it stands above or below them.
How the values were obtained:
PtdIns 4-kinase [1] = target: T1, PtdIns 4-kinase (Bos taurus, UniProt A6QLN5); assay: Specificity of PtdIns 4-kinase for a nucleotide phosphoryl donor ([3H]PtdIns as substrate); type: biochemical, bovine
T1 construct: It constitutes the major PtdIns 4-kinase activity of bovine uteri; from tissue; host or cells: bovine uterus (acetone powder, purified over ammonium sulfate, Mono Q, S-Sepharose, Mono Q, Mono P and hydroxylapatite)
T1 sequence (A6QLN5 1-479): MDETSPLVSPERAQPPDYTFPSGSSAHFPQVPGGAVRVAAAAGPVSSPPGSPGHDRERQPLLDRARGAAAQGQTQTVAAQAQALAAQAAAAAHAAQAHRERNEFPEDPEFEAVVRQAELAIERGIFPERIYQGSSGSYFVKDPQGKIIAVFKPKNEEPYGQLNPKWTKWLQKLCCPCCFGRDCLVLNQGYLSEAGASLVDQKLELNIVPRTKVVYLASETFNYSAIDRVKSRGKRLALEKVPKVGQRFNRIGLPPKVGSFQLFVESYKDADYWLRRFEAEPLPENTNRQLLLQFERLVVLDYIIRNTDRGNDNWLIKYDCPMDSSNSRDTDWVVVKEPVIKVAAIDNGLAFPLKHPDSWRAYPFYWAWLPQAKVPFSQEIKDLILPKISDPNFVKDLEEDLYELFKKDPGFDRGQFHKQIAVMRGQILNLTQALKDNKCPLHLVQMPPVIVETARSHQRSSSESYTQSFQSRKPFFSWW
Experimental: (§1) PtdIns 4-kinase activity was assayed in 60 μl at 30° C. in 20 mM BisTris-HCl (pH 7.0), 10 mM MgCl2, 1.0% Triton X-100, 0.25 mg/ml phosphatidylinositol, and 150 μM ATP (1.25 μCi[-^32 P]ATP), unless otherwise noted. The reaction was terminated by the addition of 12 μl of cold HCl, 120 μl of cold methanol, 150 μl of chloroform, and 40 μl of H2 O. The extracted samples were centrifuged at 12,000 × g for 1 min. and the aqueous layer removed and discarded. When needed, the organic phase was washed with 40 μl of cold methanol and 40 μl of cold 1.0 N HCl, centrifuged at 12,000 × g, and the aqueous layer was removed. The organic phase was then dried under vacuum in a Savant speed-vac, resuspended in 40 μl of chloroform/methanol (2:1), and chromatographed on potassium oxalate-impregnated Silica Gel 60 thin layer chromatography plates (TLC). The solvent system used consisted of chloroform/methanol/ammonium hydroxide/water (51:39.6:3:8.4). For two-dimensional thin layer chromatography, the preceding solvent system was used for the first dimension, and chloroform/methanol/acetic acid/water (50:39:1:10) was used for the second dimension. Standards were visualized by exposing the TLC plate to iodine vapor. The reaction product, phosphatidylinositol 4-phosphate, was visualized by autoradiography, and the corresponding area of the TLC plate was scraped and quantitated by Cherenkov counting. […] For tests utilizing [^3 H]PtdIns, the corresponding areas of the TLC plates were scraped and the silica powder was suspended in a gel of Aquasol/H2 O (4:1) before counting. All assays (except column fractions) were done in duplicate or triplicate.

PtdIns 4-kinase [2] = target: T1, PtdIns 4-kinase; assay: PtdIns 4-kinase activity assay: kinetic parameters, specific activity, pH optimum; type: biochemical, bovine; settings: for Km: assuming a molecular weight of 835.2 for PtdIns, read-out: apparent Km for PtdIns
Experimental: PtdIns 4-kinase activity was assayed in 60 μl at 30° C. in 20 mM BisTris-HCl (pH 7.0), 10 mM MgCl2, 1.0% Triton X-100, 0.25 mg/ml phosphatidylinositol, and 150 μM ATP (1.25 μCi[-^32 P]ATP), unless otherwise noted. The reaction was terminated by the addition of 12 μl of cold HCl, 120 μl of cold methanol, 150 μl of chloroform, and 40 μl of H2 O. The extracted samples were centrifuged at 12,000 × g for 1 min. and the aqueous layer removed and discarded. When needed, the organic phase was washed with 40 μl of cold methanol and 40 μl of cold 1.0 N HCl, centrifuged at 12,000 × g, and the aqueous layer was removed. The organic phase was then dried under vacuum in a Savant speed-vac, resuspended in 40 μl of chloroform/methanol (2:1), and chromatographed on potassium oxalate-impregnated Silica Gel 60 thin layer chromatography plates (TLC). The solvent system used consisted of chloroform/methanol/ammonium hydroxide/water (51:39.6:3:8.4). For two-dimensional thin layer chromatography, the preceding solvent system was used for the first dimension, and chloroform/methanol/acetic acid/water (50:39:1:10) was used for the second dimension. Standards were visualized by exposing the TLC plate to iodine vapor. The reaction product, phosphatidylinositol 4-phosphate, was visualized by autoradiography, and the corresponding area of the TLC plate was scraped and quantitated by Cherenkov counting. This assay was linear with respect to both protein concentration and time. For tests utilizing [^3 H]PtdIns, the corresponding areas of the TLC plates were scraped and the silica powder was suspended in a gel of Aquasol/H2 O (4:1) before counting. All assays (except column fractions) were done in duplicate or triplicate.
The purified PtdIns 4-kinase was used to determine the kinetic parameters of this enzyme for ATP and PtdIns. Optimal enzymatic activity was found at concentrations of ATP above 100 μM. […] In order to avoid potential effects on enzymatic activity due to changes in the Triton X-100/PtdIns micelles used as substrate, a constant molar ratio of Triton X-100 to PtdIns was used, and the concentration of Triton X-100 was maintained above its critical micellar concentration. […] The different Vmax values may be explained by the fact that the ATP substrate saturation curve was performed at a pH of 7.4 rather than 7.0.
In order to optimize the assay of this enzyme, the pH optimum for Ptdlns 4-kinase was determined. This enzyme was optimally active in the pH range of 6.0-7.0 (FIG. 4). Above a pH of 7.0 and below a pH of 6.0 the activity of this enzyme decreased sharply.

PtdIns 4-kinase [3] = target: T1, PtdIns 4-kinase; assay: Influence of divalent cations (Mg2+, Ca2+) on PtdIns 4-kinase activity; type: biochemical, bovine
Experimental: as §1, with “The” for “PtdIns 4-kinase activity was assayed in 60 μl at 30° C. in 20 mM BisTris-HCl (pH 7.0), 10 mM MgCl2, 1.0% Triton X-100, 0.25 mg/ml phosphatidylinositol, and 150 μM ATP (1.25 μCi[-^32 P]ATP), unless otherwise noted. The”, “The solvent system used consisted of chloroform/methanol/ammonium hydroxide/water (51:39.6:3:8.4).” left out

[4] = test system: PtdIns 4-kinase/PtdIns-4-P 5-kinase purified from bovine brain myelin; settings: Saltiel et al., Biochem. J. 241, 759-763 (1987); cited from earlier work
[5] = nonlinear regression, Hill equation

Molecule: Nc1ncnc2c1ncn2[C@@H]1O[C@H](COP(=O)(O)OP(=O)(O)OP(=O)(O)O)[C@@H](O)[C@H]1O [ATP]
utilization as phosphoryl donor (words) (PtdIns 4-kinase [1]; [3H]PtdIns as substrate): utilized; also recorded: will utilize | activity at 150 µM (PtdIns 4-kinase [1]; read-out: Relative activity with nucleotide donor): 100% | ATP concentration for optimal enzymatic activity (PtdIns 4-kinase [2]; FIG. 3A): above 100 μM | Vmax, ATP concentration varied (PtdIns 4-kinase [2]; pH 7.4): 2.2 µmol/mg/min

Molecule: [Ca+2] [Ca^2+]
IC50 (PtdIns 4-kinase [3]; 100 μM ATP, 100 μM EGTA, FIG. 6, read-out: free Ca2+ concentration giving 50% inhibition): ~300 µM

Hill coefficient of Mg2+ dependence (PtdIns 4-kinase [3]; [5]): 1.9 | Ks of Mg2+ dependence (PtdIns 4-kinase [3]; [5]): 0.36
Molecule: [Mg+2] [Mg^2+]

PtdIns concentration for saturation of enzyme activity (PtdIns 4-kinase [2]; FIG. 3B): above 0.2 mg/ml | Km (PtdIns 4-kinase [2]; listed as phosphatidylinositol (PtdIns)): ~26 µM | Km (PtdIns 4-kinase [2]): 26 µM and ~26 µM | Vmax, PtdIns concentration varied (PtdIns 4-kinase [2]; pH 7.0): 3.3 µmol/mg/min | apparent Km for PtdIns (PtdIns 4-kinase [2]; purified enzyme, pH 7.0 (Tris-HCl), constant Triton X-100/PtdIns ratio): 22 µg/mL
Molecule: phosphatidylinositol [PtdIns]
Km [4]: 400 µM

— US5001064A, “Phosphatidylinositol 4-kinase” (Washington University, priority 1988, dated 1991)
